Measured values as given in patent US7592326B2, “Method for stimulating the immune, inflammatory or neuroprotective response” (priority 2004, dated 2009).

What was measured:
[1] = test system: DCs; assay: Mannose receptor-mediated endocytosis (FITC-dextran uptake); type: cell-based, human; settings: DCs treated 24 h; FIG. 2
Experimental: Mannose receptor (MR)-mediated endocytosis was measured as the cellular uptake of FITC-dextran (DX) and quantified by flow cytometry. A total of 2×10^5 cells per sample were incubated in media containing FITC-DX (1 mg/ml) (Mv 40,000). After 15 min of incubation at 37° C. or 4° C. (as negative control), cells were washed four times with cold PBS containing 1% FCS and 0.01% NaN3 and fixed in 1% formaldehyde. The background (cells pulsed at 4° C.) was always subtracted.

[2] = test system: human DCs; assay: Cytokine, chemokine and chemokine receptor expression in c-di-GMP-induced DC maturation (QPCR); type: cell-based
Experimental: Buffy coats were obtained from healthy human volunteers and fractionated over Histopaque-1077. The peripheral blood mononuclear cells (PBMC) layer was recovered and erythrocyte-depleted by incubation in red blood cell lysis buffer for 5 minutes at room temperature. PBMCs were cultured in complete medium (RPMI 1640, 1% L-glutamine, 1% penicillin/streptomycin, and 10% low endotoxin FCS) for 2 hours in T75 flasks (Corning). Following incubation, nonadherent cells were removed by three washes with 1× PBS (Invitrogen, Carlsbad, Calif.). The remaining adherent cells were then cultured in complete medium supplemented with GM-CSF and IL-4 (50 ng/mL each). Human and murine IL-4 and GM-CSF were purchased from Peprotech (Rocky Hill, N.J.). On day 2 and day 4, the DC cultures received an additional dose of GM-CSF and IL-4 (50 ng/mL each). On day 5, non-adherent DC were harvested by gentle pipetting, counted, and plated in fresh medium containing GM-CSF and IL-4 (50 ng/mL each). On Day 6, some DC were matured by addition of 100 ng/ml LPS or 10-400 μM c-di-GMP for 1-24 hours.
Surface expression of various markers was assessed using CellQuest analysis software on a FACScalibur (Becton-Dickinson) flow cytometer. Surface expression was determined using the following FITC- and PE-conjugated antibodies: CD86-FITC (Research Diagnostics), CCR7-PE (R&D Systems), CD80-FITC, CD83-FITC, HLA-DR-FITC (BD Pharmingen). The isotype control antibodies were used accordingly in all experiments and were purchased from Pharmingen. Human DC were incubated in 1% human AB serum/PBS and were incubated with rat anti-CD16/CD32 (BD Phamingen) to block non-specific binding. Total RNA was extracted using the RNeasy kit according to the manufacturer's protocol (Qiagen). Briefly, after DNase I (Invitrogen) treatment, 1 μg of total RNA from each sample was used as template for the reverse transcription reaction. 50 ul of cDNA was synthesized using Oligo(dT)15, random hexamers, and multiscribe reverse transcriptase (Applied Biosystems). All samples were reverse transcribed under the same conditions (25° C. for 10 minutes, 48° C. for 30 minutes) and from the same reverse transcription master mix in order to minimize differences in reverse transcription efficiency. All oligonucleotide primers for QPCR were designed using Primer Express software 1.0 (PE Biosystems) and synthesized by Invitrogen. The 25 ul QPCR reaction contains 2 ul of cDNA, 12.5 ul of 2× SYBR Green master mix (Stratagene), and […] of sense and anti-sense primer. The reaction conditions were as follows: 50° C. for 2 minutes, 95° C. for 10 minutes then 40 cycles of 95° C. for 15 seconds and 60° C. for 1 minute. Emitted fluorescence for each reaction was measured during the annealing/extension phase, and amplification plots were analyzed using the MX4000 software version 3.0 (Stratagene). Quantity values (i.e., copies) for gene expression were generated by comparison of the fluorescence generated by each sample with standard curves of known quantities. Next, the calculated number of copies was divided by the number of copies of the housekeeping gene GAPDH.

[3] = test system: human colon carcinoma cells; settings: synthetic c-di-GMP; cited from earlier work
[4] = Lethality in CD1 mice; settings: 50 μl of 200 μM, after 24 h

Nc1nc(=O)c2ncn([C@@H]3OC4COP(=O)(O)O[C@H]5[C@@H](O)[C@H](n6cnc7c(=O)nc(N)[nH]c76)O[C@@H]5COP(=O)(O)OC4C3O)c2[nH]1 (stereo partly shown) [c-di-GMP, Bis(3′→5′)-cyclic diguanylic acid]
uptake of FITC-DX (MR-mediated endocytosis) [1]: did not induce any major effect
mRNA expression of chemokines IL-8/CXCL8, MIG/CXCL9, IP-10/CXCL10, I-TAC/CXCL11, MCP-1/CCL2, MIP-1a/CCL3, MIP-1b/CCL4, RANTES/CCL5 ([2]; 200 uM, 1-24 hours): increased
mRNA expression of IFN-a, IL-1b, TNF, IFN-g and IL-12 p40 ([2]; 200 uM, FIG. 11A): stimulated
IL-8 and IP-10 protein production (ELISA of supernatants) ([2]; 24 hours, data not shown): consistent with the mRNA results
expression of CXCR4 and CCR7 ([2]; FIG. 11C): upregulated
expression of chemokine receptors CCR1 and CCR5 ([2]; FIG. 11C): downregulated
induction of Th2 cytokines (IL-4, IL-5, IL-10, IL-13) ([2]; human DCs): No evidence for the induction
time of TNF-a peak following treatment ([2]; returns to basal level after 24 hours): 3 h
basal and growth factor induced proliferation of human colon carcinoma cells [3]: inhibits
lethality in CD1 mice [4]: non-lethal
